{"source": "paper PMC3025356", "about": "“Mechanism of the Ca^2+-Dependent Interaction between S100A4 and Tail Fragments of Nonmuscle Myosin Heavy Chain IIA” (Journal of Molecular Biology, 2011)", "key": {"[1]": {"test": "Stopped-flow tyrosine fluorescence, Ca^2+ dissociation from S100A4 constructs", "assay_type": "binding", "method": "(§1) Stopped-flow measurements were carried out using an SX18-MV apparatus (Applied Photophysics Ltd., Leatherhead, UK) with a dead time of 1.5 ms.[40] Records were generally captured on a logarithmic time base. Absorption (turbidity) measurements were usually recorded using a 10-mm pathlength, while fluorescence was recorded with a 2-mm pathlength for excitation and emission. The stated concentrations of components refer to the reaction chamber after mixing, unless otherwise indicated. Tyrosine fluorescence was excited at 280 nm, and the emission was collected through a UG11 bandpass filter plus a 305-nm longpass filter.[18] Fluorescein fluorescence was excited at 480 nm, and the emission was detected through a 515-nm longpass filter. Quin-2 fluorescence was measured by excitation at 336 nm, and emission was collected with a 455-nm longpass filter. For simultaneous recording of light scatter, a second channel was monitored through a UG11 filter. Rate constants were obtained by fitting to single-exponential or double-exponential functions using Kaleidagraph (Synergy Software) or Applied Photophysics Pro-Data software. Modeling of kinetic schemes was performed using Berkeley Madonna software.\nDissociation of Ca2+ from wild type S100A4 (black), Y19F mutant (blue) and Y75F mutant (red) monitored by tyrosine fluorescence. 13 M of each S100A4 construct plus 100 µM Ca2+ was mixed with 200 µM EGTA (reaction chamber concentrations) and the tyrosine fluorescence monitored. The buffer was 20 mM NaCl, 10 mM HEPES, 2 mM DTT at pH 7.5 and 20 °C. Fits to a single exponential function yielded rate constants of 20 s-1, 113 s-1 and 45 s-1 for wild-type, Y19F mutant and Y75F mutant respectively. (d) Dissociation of Ca2+ from wild type S100A4 (black), E33Q mutant (blue) and D63N mutant (red) monitored by tyrosine fluorescence. 13 M of each S100A4 construct plus 15 M Ca2+ was mixed with 200 M EGTA (reaction chamber concentrations) and the tyrosine fluorescence monitored. Fits to a single exponential function yielded rate constants of 22 s-1 and 49 s-1 for wild-type and E33Q construct respectively, while that […]\nThe records for the mutants were vertically offset for clarity in both […]"}, "[2]": {"test": "Stopped-flow Quin-2 fluorescence, Ca^2+ dissociation from / binding to S100A4 constructs (no target)", "text": "In order to increase the signal-to-noise ratio of the Ca^2+ dissociation transients, we used Quin-2 as combined fluorescent indicator and high-affinity chelator.[19,20] These measurements confirmed that Ca^2+ dissociated from wild-type protein with a rate constant of 16 s^− 1 (Fig. 3a; cf. 20 s^− 1 for the tyrosine signal). Given the poor signal-to-noise ratio of the tyrosine signal, the difference is barely significant but may reflect the fact that the Quin-2 signal represents at least a two-step sequential reaction (Ca^2+ dissociation from S100AS4, followed by rapid binding to Quin-2).\nFig. 3 (a) Dissociation of Ca^2+ from wild-type S100A4 (black), E33Q mutant (blue), and D63N mutant (red), as monitored by Quin-2 fluorescence. […] The records for the mutants were vertically offset for clarity. (b) Ca^2+ binding to S100A4 as determined from the amplitude of the resolved transient (k ≈ 20 s^− 1) when 6.5 μM S100A4 was preincubated with various added [Ca^2+] and then mixed with 100 μM Quin-2. The amplitude was converted into a bound concentration from an independent calibration using the same Quin-2 solution and known free [Ca^2+]. […] While either model could account for the data, the measured stoichiometry from ITC (Table 1) favors the cooperative model.\nas §1"}, "M111": {"system": "M111", "test": "NMR ^1H,^15N HSQC of labelled M111 on addition of full-length S100A4", "assay_type": "binding, human", "settings": "1.5 molar excess of full-length S100A4", "method": "Fig. 7 Chemical shift changes in the ^1H,^15N HSQC spectra of ^13C,^15N-labelled M111 on addition of full-length S100A4. Superposition of the spectra in free form (black) and in the presence of a 1.5 molar excess of S100A4 (red). Resonance assignments derived from the analysis of triple-resonance spectra are marked. In addition to sharp intense cross-peaks, the spectra contain broad low-intensity peaks that cannot be assigned due to low sensitivity.\nAll NMR samples were prepared in 20 mM 4-morpholineethanesulfonic acid, 20 mM NaCl, 5 mM CaCl2, and 5% D2O buffer (pH 6.1). DTT (2 mM) was added to the samples containing S100A4. Titration experiments were carried out at 0.2 mM S100A4 using 10 mM peptide solutions. Spectra for M111 backbone resonance assignments were measured using 0.4 mM protein solution. NMR spectra were obtained at 298 K using Bruker AVANCE DRX 600 or AVANCE DRX 800 spectrometers, which are both equipped with cryoprobes. Proton chemical shifts were referenced to external 2,2-dimethyl-2-silapentane-5-sulfonate. The ^15N and ^13C chemical shifts were referenced indirectly using recommended gyromagnetic ratios.[44] Spectra were processed with TopSpin (Bruker) and analysed using Analysis.[45] Three-dimensional HNCO, HN(CA)CO, HNCA, HN(CO)CA, HNCACB, and HN(CO)CACB experiments were used for the sequential assignment of the backbone NH, N, CO, C^α, and C^β resonances."}, "[3]": {"settings": "37 °C, 20 mM KCl, cited from earlier work", "method": "At 10 °C, the first site became associated with negative enthalpy but retained a ..."}, "NM-MHC IIA rods": {"target": "NM-MHC IIA rods", "settings": "20 mM NaCl; cited from earlier work", "text": "Over the last two decades, there has been much interest in the role of the S100 Ca^2^+-binding protein family in the regulation of cellular events.[1,2] Identifying the specific targets of each of the 24 members[3] and deducing their mechanisms of action in vitro and in vivo remain to be a challenge. This is exemplified by S100A4 (also known as Mts1, metastasin, p9Ka, pEL98, calvasculin, and Fsp-1), which has been implicated in a wide range of cellular events and numerous diseases and binds to several different targets in vitro.[4–6] In particular, following early work,[7–9] there have been ma ..."}}, "note": "Read-outs that look alike come from different tables or passages of the source."}
{"substance": "S100A4: recombinant S100A4 expressed in E. coli BL21(DE3)", "values": [{"measurement": "Ca^2+ dissociation rate constant (tyrosine)", "setting": "[1]; 13 μM S100A4 + 15 μM Ca^2+ mixed with 200 μM EGTA", "value": 22, "unit": "s^− 1"}, {"measurement": "Ca^2+ dissociation rate constant (tyrosine)", "setting": "[1]; 13 μM S100A4 + 100 μM Ca^2+ mixed with 200 μM EGTA, 20 mM NaCl, 10 mM Hepes, 2 mM DTT, pH 7.5, 20 °C", "value": 20, "unit": "s^− 1"}, {"measurement": "kobs, Ca^2+ dissociation, no target (k− 1)", "setting": "[2]; 10 μM S100A4 + 50 μM Ca^2+ mixed with 100 μM Quin-2, pH 7.5, 20 °C", "value": 17, "unit": "s^− 1"}, {"measurement": "Kd", "setting": "[2]; model for Fig. 3b data, read-out: Kd, EF2 site (alternative model)", "value": 5, "unit": "µM"}, {"measurement": "Kd", "setting": "[2]; model for Fig. 3b data, read-out: Kd, first Ca^2+ at EF2 of dimer (cooperative model)", "value": 100, "unit": "µM"}, {"measurement": "Kd", "setting": "[2]; model for Fig. 3b data, read-out: Kd, second Ca^2+ at EF2 of dimer (cooperative model)", "value": 1.7, "unit": "µM"}, {"measurement": "amplitude without added Ca^2+", "setting": "[2]; no added Ca^2+, excess Quin-2", "value": "0.1 mol of Ca^2+ per mole of S100A4 monomer"}, {"measurement": "rate constant without added Ca^2+", "setting": "[2]; no added Ca^2+, excess Quin-2", "value": "around 1 s^− 1"}, {"measurement": "Kd", "setting": "[2]; optically silent EF1 model for Fig. 3b data, read-out: Kd, EF1 site (alternative model)", "value": 0.25, "unit": "µM"}, {"measurement": "Ca^2+ bound per monomer from calibrated Quin-2 amplitude", "setting": "[2]; resolved signal, 6.5 μM S100A4, 100 μM Quin-2", "value": "one Ca^2+ bound per S100A4 monomer"}, {"measurement": "Ca^2+ dissociation rate constant (Quin-2)", "setting": "[2]; single exponential fit, no target", "value": 16, "unit": "s^− 1"}, {"measurement": "rate constant of second slow phase of Ca^2+ dissociation", "setting": "[2]; some preparations", "value": "0.4–4 s^− 1"}, {"measurement": "resonance broadening in M111 on S100A4 addition", "setting": "M111", "value": "additional broadening of resonances in the 1926–1939 region"}, {"measurement": "Kd", "setting": "[3]; read-out: Kd, site with negative enthalpy", "value": 54, "unit": "µM"}, {"measurement": "Kd", "setting": "[3]; read-out: Kd, site with positive enthalpy", "value": 3.3, "unit": "µM"}, {"measurement": "binding to rods", "setting": "NM-MHC IIA rods", "value": "micromolar affinity"}]}
